Measurements taken from PubChem BioAssay AID330 (DTP/NCI, 2004).
“And” between values parts separate entries of the source, which are not always exact repeats. Equal values may be shown once. Toxic doses and inconclusive results are not listed. Rule for the calls: active = survival T/C of 150% or more; inactive = T/C below 125% in these data.

System: P388 leukemia ip, CD2F1 mice, survival T/C
Test: NCI In Vivo Anticancer Drug Screen. Data for tumor model P388 Leukemia (intraperitoneal) in CD2F1 (CDF1) mice
Conditions: endpoint: median survival time, higher = longer survival
Summary of the method: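 Mice carrying the transplanted tumor received test compound or vehicle. Survival was recorded in each group, and the value is the treated-group measurement divided by that of the vehicle-treated control group.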

[1] = dose: 50.0 mg/kg/injection, schedule: Q01DX009 (ip), vehicle: Klucel (hydroxypropylcellulose) (HPC)
[2] = dose: 100.0 mg/kg/injection, schedule: Q01DX001 (ip), vehicle: Klucel (hydroxypropylcellulose) (HPC)
[3] = dose: 100.0 mg/kg/injection, schedule: Q01DX009 (ip), vehicle: Klucel (hydroxypropylcellulose) (HPC)
[4] = dose: 200.0 mg/kg/injection, schedule: Q01DX001 (ip), vehicle: Klucel (hydroxypropylcellulose) (HPC)
[5] = dose: 200.0 mg/kg/injection, schedule: Q01DX009 (ip), vehicle: Klucel (hydroxypropylcellulose) (HPC)
[6] = dose: 60.0 mg/kg/injection, schedule: Q01DX005 (ip), vehicle: Klucel (hydroxypropylcellulose) (HPC)
[7] = dose: 120.0 mg/kg/injection, schedule: Q01DX005 (ip), vehicle: Klucel (hydroxypropylcellulose) (HPC)
[8] = dose: 240.0 mg/kg/injection, schedule: Q01DX005 (ip), vehicle: Klucel (hydroxypropylcellulose) (HPC)
[9] = dose: 50.0 mg/kg/injection, schedule: Q01DX005 (ip), vehicle: Klucel (hydroxypropylcellulose) (HPC)
[10] = dose: 100.0 mg/kg/injection, schedule: Q01DX005 (ip), vehicle: Klucel (hydroxypropylcellulose) (HPC)
[11] = dose: 200.0 mg/kg/injection, schedule: Q01DX005 (ip), vehicle: Klucel (hydroxypropylcellulose) (HPC)
[12] = dose: 50.0 mg/kg/injection, schedule: Q01DX009 (ip), vehicle: saline with Tween-80
[13] = dose: 100.0 mg/kg/injection, schedule: Q01DX009 (ip), vehicle: saline with Tween-80
[14] = dose: 100.0 mg/kg/injection, schedule: Q04DX003 (ip), vehicle: saline with Tween-80

Measured: T/C

CC(C)NC(=O)OCc1c(COC(=O)NC(C)C)c(-c2ccc(Cl)c(Cl)c2)n2c1CS(=O)C2 (stereo unspecified)
inactive: dose: 12.5 mg/kg/injection, schedule: Q01DX005 (ip), vehicle: Klucel + Tween-80 99 % of control | dose: 25.0 mg/kg/injection, schedule: Q01DX005 (ip), vehicle: Klucel + Tween-80 97 % of control | dose: 50.0 mg/kg/injection, schedule: Q01DX005 (ip), vehicle: Klucel + Tween-80 92 % of control | dose: 100.0 mg/kg/injection, schedule: Q01DX005 (ip), vehicle: Klucel + Tween-80 89 % of control | dose: 200.0 mg/kg/injection, schedule: Q01DX005 (ip), vehicle: Klucel + Tween-80 104 % of control and 89 % of control

CC(C)=CCC(OC(=O)CC(C)(C)O)C1=CC(=O)c2c(O)ccc(O)c2C1=O (stereo unspecified)
inactive: dose: 18.75 mg/kg/injection, schedule: Q01DX005 (ip), vehicle: Klucel (hydroxypropylcellulose) (HPC) 90 % of control | dose: 37.5 mg/kg/injection, schedule: Q01DX005 (ip), vehicle: Klucel (hydroxypropylcellulose) (HPC) 100 % of control

O=C(CC1CCCC/C1=N\O)NO (stereo unspecified)
inactive: [1] 100 % of control | [2] 106 % of control | [3] 100 % of control | [4] 112 % of control | [5] 117 % of control | dose: 400.0 mg/kg/injection, schedule: Q01DX001 (ip), vehicle: Klucel (hydroxypropylcellulose) (HPC) 109 % of control

CCCCOCN1C(=O)NC(c2ccccc2)(c2ccccc2)C1=O
inactive: [6] 94 % of control | [7] 94 % of control | [8] 94 % of control

C=CCN(CC=C)CC(C)(O)CNc1cc(OC)cc2cccnc12 (stereo unspecified)
inactive: dose: 50.0 mg/kg/injection, schedule: Q01DX005 (ip), vehicle: saline 107 % of control | dose: 100.0 mg/kg/injection, schedule: Q01DX005 (ip), vehicle: saline 101 % of control

CN(N)c1nnnn1-c1ccccc1
inactive: [1] 104 % of control | [3] 117 % of control | [5] 113 % of control

COc1cc(CCN=Cc2ccccc2O)c([N+](=O)[O-])cc1OC
inactive: [9] 97 % of control | [10] 100 % of control | [11] 92 % of control

CCOc1ccc2nc3cc(N=Nc4ccc(N(C)C)cc4)ccc3c(N)c2c1
inactive: [12] 110 % of control | [13] 110 % of control

CCOP(=O)(CC=O)OCC
inactive: dose: 60.0 mg/kg/injection, schedule: Q01DX005 (ip), vehicle: saline 95 % of control | dose: 120.0 mg/kg/injection, schedule: Q01DX005 (ip), vehicle: saline 100 % of control | dose: 240.0 mg/kg/injection, schedule: Q01DX005 (ip), vehicle: saline 101 % of control

FC(F)(F)c1cccc(N(c2nc(Cl)nc(Cl)n2)c2nc(Cl)nc(Cl)n2)c1
inactive: dose: 50.0 mg/kg/injection, schedule: Q01DX009 (ip), vehicle: suspension in saline 94 % of control | dose: 100.0 mg/kg/injection, schedule: Q01DX009 (ip), vehicle: suspension in saline 92 % of control | dose: 200.0 mg/kg/injection, schedule: Q01DX009 (ip), vehicle: suspension in saline 91 % of control

CC1(C2(C)CC2(Br)Br)CC1(Br)Br (stereo unspecified)
inactive: [9] 101 % of control | [10] 102 % of control | [11] 114 % of control

CN1CC2(CO)C(c3ccccc3)OC(c3ccccc3)C(CO)(C1)C2O (stereo unspecified)
inactive: dose: 60.0 mg/kg/injection, schedule: Q01DX005 (ip), vehicle: saline with Tween-80 104 % of control and 100 % of control | dose: 120.0 mg/kg/injection, schedule: Q01DX005 (ip), vehicle: saline with Tween-80 107 % of control and 100 % of control | dose: 240.0 mg/kg/injection, schedule: Q01DX005 (ip), vehicle: saline with Tween-80 96 % of control

CC(C)C1CC2CCC3C(C)(C(=O)O)CCCC3(C)C2CC1CO (stereo unspecified)
inactive: [14] 100 % of control | dose: 200.0 mg/kg/injection, schedule: Q04DX003 (ip), vehicle: saline with Tween-80 91 % of control

Cc1cc(NC(=O)Nc2cc(Cl)ccc2C)no1
inactive: [6] 87 % of control | [7] 93 % of control | [8] 93 % of control

CNC(=O)Oc1cccc(NC(=S)SC)c1
inactive: dose: 12.5 mg/kg/injection, schedule: Q04DX003 (ip), vehicle: saline with Tween-80 106 % of control | dose: 25.0 mg/kg/injection, schedule: Q04DX003 (ip), vehicle: saline with Tween-80 104 % of control | dose: 50.0 mg/kg/injection, schedule: Q04DX003 (ip), vehicle: saline with Tween-80 100 % of control | [14] 104 % of control

N#C/C1=C(\C#N)CCC2(C#N)C3C=CC(O3)C2(C#N)CC1 (stereo unspecified)
inactive: dose: 3.12 mg/kg/injection, schedule: Q01DX009 (ip), vehicle: Klucel (hydroxypropylcellulose) (HPC) 103 % of control | dose: 6.25 mg/kg/injection, schedule: Q01DX009 (ip), vehicle: Klucel (hydroxypropylcellulose) (HPC) 100 % of control | dose: 12.5 mg/kg/injection, schedule: Q01DX009 (ip), vehicle: Klucel (hydroxypropylcellulose) (HPC) 100 % of control

Cc1ccc(C(=O)/C(=C/c2ccccn2)N=[N+]=[N-])cc1
inactive: dose: 100.0 mg/kg/injection, schedule: Q01DX001 (ip), vehicle: saline with Tween-80 110 % of control | dose: 200.0 mg/kg/injection, schedule: Q01DX001 (ip), vehicle: saline with Tween-80 104 % of control | dose: 400.0 mg/kg/injection, schedule: Q01DX001 (ip), vehicle: saline with Tween-80 99 % of control

COC(=O)C1(C)Cc2cc(OC(C)=O)c(OC(C)=O)cc2N1 (stereo unspecified)
inactive: dose: 25.0 mg/kg/injection, schedule: Q01DX001 (ip), vehicle: Klucel (hydroxypropylcellulose) (HPC) 109 % of control | dose: 50.0 mg/kg/injection, schedule: Q01DX001 (ip), vehicle: Klucel (hydroxypropylcellulose) (HPC) 100 % of control | [2] 109 % of control | [4] 114 % of control

CCCCCCCCCCCCCCCC[N+](C)(C)CCN=[N+]=[N-]
inactive: dose: 12.5 mg/kg/injection, schedule: Q01DX009 (ip), vehicle: saline with Tween-80 110 % of control | dose: 25.0 mg/kg/injection, schedule: Q01DX009 (ip), vehicle: saline with Tween-80 107 % of control

C[Si](C)(C)N1C(=O)c2ccccc2C1=O
inactive: [1] 100 % of control | [3] 115 % of control | [5] 107 % of control

CCCCCOC(=O)CN(CC(=O)OCCCCC)c1ccc(C=O)cc1
inactive: dose: 25.0 mg/kg/injection, schedule: Q04DX003 (ip), vehicle: other 95 % of control | dose: 50.0 mg/kg/injection, schedule: Q04DX003 (ip), vehicle: other 100 % of control | dose: 100.0 mg/kg/injection, schedule: Q04DX003 (ip), vehicle: other 100 % of control

Nc1nc(N)nc(Cc2ccccc2)n1
inactive: [12] 104 % of control | [13] 93 % of control | dose: 200.0 mg/kg/injection, schedule: Q01DX009 (ip), vehicle: saline with Tween-80 95 % of control

COC(=O)c1c(C)ccc2c(O)c3c(cc12)C(=O)c1c2c(cc(O)c1C3=O)C1(C)OC(C)(O2)C(O)C(N(C)C)C1O (stereo unspecified)
inactive: dose: 25.0 mg/kg/injection, schedule: Q01DX010 (ip), vehicle: saline 100 % of control | dose: 50.0 mg/kg/injection, schedule: Q01DX010 (ip), vehicle: saline 100 % of control | dose: 100.0 mg/kg/injection, schedule: Q01DX010 (ip), vehicle: saline 100 % of control | dose: 200.0 mg/kg/injection, schedule: Q01DX010 (ip), vehicle: saline 100 % of control | dose: 400.0 mg/kg/injection, schedule: Q01DX010 (ip), vehicle: saline 100 % of control

CC(C)[Si]1(C(C)C)N[Si](C(C)C)(C(C)C)N[Si](C(C)C)(C(C)C)N1
inactive: [6] 108 % of control | [7] 93 % of control | [8] 100 % of control
